Reference: patent US10716805B2, “Formulation for release of nitric oxide” (Glanotech Limited, priority 2018, dated 2020)
“Also recorded” adds a separate entry of the source.

Tests used:
corpus cavernosum tissue = assay: In-vitro relaxation/contraction of rat corpus cavernosum tissue (force displacement transducer); assay type: cell-based; conditions: for relaxation of the tissue of the corpora cavernosa pre-constricted with norepinephrine (vasodilatory effect): scalar solutions 10^−s M to 10^−3 M after norepinephrine constriction of about 1.5 mN
Excerpt: In particular, this model is used for planning experiments aimed at checking the vasodilatory action of NO on vascular smooth muscle cells, since the methodology presented by the authors allows samples of corpus cavernosum tissue to be obtained from rats, on which studies of response to various exogenous molecules can be conducted, to detect their relaxation/contraction effects on smooth muscle cells.
We used 20 adult Wistar-type rats weighing between 175 and 200 g; after having sacrificed the rats we obtained corpus cavernosum tissues as described by the methods and placed these in a Krebs solution (in mM: 118 NaCl, 4.7 KCl, 1.2 KH2PO4, 1.2 MgSO4, 1.5 CaCl2, 25 NaHCO3, 11 glucose).
A single sample was taken from each rat.
The excised tissues were then put in 10 mL Krebs solution and held in place by two metal arms to allow assessment of any changes in the forces observed and assessed by the Grass FT03 model (using a force displacement transducer apparatus to assess the muscle tension of tissues, calibrated in mN). The saline solution containing the tissues (Krebs solution) was kept at pH 7.4±0.1 and at 37° C., with oxygenation using a mixture of 95% oxygen and 5% carbon dioxide.

[1] = tested on: rat model with type 1 diabetes induced by streptozotocin; assay: In-vivo test of sexual function in diabetic rat models; conditions: for EL (Ejaculation latency) / IF (Introduction frequency) / IL (Introduction latency) / MF (Mating frequency) / ML (Mating latency) / PEI (Post-ejaculatory interval): diabetic rat
Protocol: Next we tested the possible beneficial effects of SNO-pantetheine on sexual function in a rat model with type 1 diabetes induced by streptozotocin, which is typically accompanied by deficit of sexual activity.
In short, male Wistar rats were assigned to a cage (45×50×35 cm) covered in glass and lit with red light. Training took place every day after 5 pm for about 30 min, and after 10 minutes of acclimatization a female rat in an oestrogenic phase was introduced into the cage. We then observed the sexual behaviour of diabetic rats vs. the relevant controls by measuring standard parameters (Burnett et al., 1995).

[2] = Formation and stability of nitrosothiol after mixing of phases A and B (visible UV absorption spectrum); assay type: physicochemical; conditions: at room temperature
Protocol: The reaction mixture is prepared by dissolving the following amounts of reagents in 5 mL propylene glycol: fumaric acid 10 mM; ascorbic acid between 30 and 50 mM (PHASE A).
A solid phase, consisting of a mixture of pantetheine, sodium nitrite and powdered copper sulfate, is added rapidly to the solution obtained, in a quantity such that their concentration in the final reaction volume amounts to: pantetheine 10 mM, sodium nitrite 15 mM; copper sulfate 1 mM (PHASE B). Mixing is done at room temperature (25° C.) (Fukuto et al., 2013).
The S-nitroso compound observed, which was absent […] the phases were mixed, is attributable to the S-nitroso pantetheine derivative.
At the same time, owing to the catalytic action of the traces of copper present, the corresponding nitrosothiol is also formed, and remains sufficiently stable for more than 1 hour at room temperature. Therefore, this formulation allows the rapid formation of nitrogen monoxide in a rapidly diffusible form and, at the same time, the formation of nitrosothiol that is sufficiently stable for the sustained release of nitrogen monoxide over time.

[3] = SNO-pantetheine group, Day 0 (baseline)
[4] = topical SNO-pantetheine, Day 30

Compound	relaxation of the tissue of the corpora cavernosa pre-constricted with norepinephrine (vasodilatory effect) (corpus cavernosum tissue)	EL (Ejaculation latency) [1, 3] [s]	IF (Introduction frequency) [1, 3] [number]	IL (Introduction latency) [1, 3] [s]	MF (Mating frequency) [1, 3] [number]	ML (Mating latency) [1, 3] [s]	PEI (Post-ejaculatory interval) [1, 3] [s]	EL (Ejaculation latency) [1, 4] [s]	IF (Introduction frequency) [1, 4] [number]	IL (Introduction latency) [1, 4] [s]	MF (Mating frequency) [1, 4] [number]	ML (Mating latency) [1, 4] [s]	PEI (Post-ejaculatory interval) [1, 4] [s]	effect on sexual behaviour in the diabetic rat model ([1]; topical application, vs. all the parameters assessed)	time nitrosothiol remains sufficiently stable [2]	constriction of corpus cavernosum tissue (corpus cavernosum tissue; scalar solutions 10^−8 M to 10^−3 M, Krebs solution pH 7.4, 37° C.)
S-nitrosothiol of alpha lipoic acid	behaviour that is very similar to that of the S-nitrosothiol of pantetheine; also recorded: exhibit the desired vasodilatory effect															
S-nitrosothiol of pantetheine [SNO-pantetheine]	effect of the norepinephrine was cancelled out; also recorded: exhibit the desired vasodilatory effect	423.2 ± 12.5	11.2 ± 0.9	52.3 ± 3.9	12.0 ± 1.7	42.5 ± 2.9	343.3 ± 10.9	375.8 ± 10.8	14.5 ± 0.8	44.7 ± 4.2	11.2 ± 0.3	34.3 ± 2.5	386.2 ± 14.3	able to induce an increase in sexual behaviour	more than 1 hour	
NC[C@H](O)c1ccc(O)c(O)c1 [norepinephrine, reference compound]																about 1.5 mN
